In brackets after ≈: the same amount, converted by molar mass.
Conditions: not given

| SMILES | solubility | logP |
| --- | --- | --- |
| CN(CCO)c1nc2c(c(=O)n(C)c(=O)n2C)n1C | 224 mM (≈ 60000 µg/mL) | – |
| CCC1(N2CCCCC2)C(=O)NC(=O)NC1=O | 6.98 mM (≈ 1670 µg/mL) | – |
| C#CCOC(=O)/C=C(C)/C=C/CC(C)CCCC(C)C (stereo unspecified) | 0.0189 mM (≈ 5.22 µg/mL) | – |
| O=P([O-])([O-])O[C@@H]1[C@@H](O)[C@H](O)[C@@H](O)[C@H](O)[C@@H]1O | 1280 mM | – |
| O=C(C(Cl)Cl)N(CCO)Cc1ccc(Oc2ccc([N+](=O)[O-])cc2)cc1 | 0.00751 mM (≈ 3 µg/mL) | – |
| Nc1nc(N)c(O)c(O)n1 | 20.1 mM (≈ 2850 µg/mL) | – |
| CCC(C)C(C)(COC(N)=O)COC(N)=O (stereo unspecified) | 4.31 mM (≈ 1000 µg/mL) | – |
| CCC(C)(CC)OC(N)=O | 27.5 mM (≈ 4000 µg/mL) | – |
| C=CCC(C(=O)NC(N)=O)C(C)C (stereo unspecified) | 1.79 mM (≈ 330 µg/mL) | – |
| Cn1ccc(=O)c2ccccc21 | 104 mM (≈ 16600 µg/mL) | – |
| COCc1ccc([N+](=O)[O-])o1 | 70 mM (≈ 11000 µg/mL) | – |
| CCN(CC)C(=O)CSc1ccc(Cl)nn1 | 19.2 mM (≈ 5000 µg/mL) | – |
| COc1ccc(C(CN(C)C)C2(O)CCCCC2)cc1.Cl (stereo unspecified) | – | 0.43 |
| CCOc1ccc2nc3cc(N)ccc3c(N)c2c1 | 263 mM (≈ 66600 µg/mL) | – |
| Nc1ccc(S(=O)(=O)O)c2cc(S(=O)(=O)O)ccc12 | 551 mM (≈ 167000 µg/mL) | – |
| Cc1csc(NS(=O)(=O)c2ccc(N)cc2)n1 | 7.43 mM (≈ 2000 µg/mL) | – |
| CC1(C)[C@H]2CC[C@]1(C)C(=O)[C@H]2O | 119 mM (≈ 20000 µg/mL) | – |
| NC(=O)N(CCO)/N=C/c1ccc([N+](=O)[O-])o1 | 2.06 mM (≈ 500 µg/mL) | – |
| CN1C2CCCC1CC(=O)C2 | 2610 mM (≈ 400000 µg/mL) | – |
| OC[C@@H](O)[C@H](O)[C@@H](O)CO | 4220 mM (≈ 642000 µg/mL) | – |
| COC(=O)CC(C)=O | 4310 mM (≈ 500000 µg/mL) | – |
| C=C1CCO[C@]2([C@H](O)[C@@](C)(O)CO)NC(=O)[C@@]1(O)NC2=O | 635 mM (≈ 192000 µg/mL) | – |
| CC(C)(C)OOC(C)(C)C | 0.684 mM (≈ 100 µg/mL) | – |
| Cc1cc(O)c(Cl)c(C)c1Cl | 1.05 mM (≈ 200 µg/mL) | – |
| C=C[C@H]1C[N@@]2CC[C@H]1C[C@H]2C12Nc3ccccc3C1(O)CCO2 (stereo partly specified) | 2.14 mM (≈ 667 µg/mL) | – |
| CC(=O)C1CCOC1=O (stereo unspecified) | 1560 mM (≈ 200000 µg/mL) | – |
| O=C([O-])c1ccccc1C(=O)O.[K+] | 408 mM | – |
| OC(CI)CI | 40.1 mM (≈ 12500 µg/mL) | – |

| SMILES | solubility | logP |
| --- | --- | --- |
| CN(Cc1cc(Br)cc(Br)c1N)C1CCCCC1 | 10.6 mM (≈ 4000 µg/mL) | – |
| Nc1ccc(S(=O)(=O)O)c2ccc(S(=O)(=O)O)cc12 | 22.8 mM (≈ 6900 µg/mL) | – |
| CCC(Br)(CC)C(=O)NC(N)=O | 1.4 mM (≈ 333 µg/mL) | – |
| CC(=O)N/N=C/c1ccc([N+](=O)[O-])o1 | 2.54 mM (≈ 500 µg/mL) | – |
| CC(=O)Oc1ccc(Br)cc1C(=O)O | 2.57 mM (≈ 667 µg/mL) | – |
| Cc1cc(NS(=O)(=O)c2ccc(N)cc2)sn1 | 83.9 mM (≈ 22600 µg/mL) | – |
| CC(C[N+](C)(C)C)OC(N)=O.[Cl-] (stereo unspecified) | 3180 mM | – |
| CCC(C)C1(CC)C(=O)N=C([O-])NC1=O.[Na+] (stereo unspecified) | 1420 mM | – |
| CC[C@@]12CCCN3CC[C@]4(c5cccc(OC)c5N(C(C)=O)[C@@H]4CC1)[C@H]32 | 47.1 mM (≈ 16700 µg/mL) | – |
| Nc1nc(N)c(O[C@@H]2O[C@H](CO)[C@@H](O)[C@H](O)[C@H]2O)c(=O)[nH]1 | 32.9 mM (≈ 10000 µg/mL) | – |
| CC(=O)c1ccc(O)c(O)c1O | 9.51 mM (≈ 1600 µg/mL) | – |
| CNC(=S)NCO | 832 mM (≈ 100000 µg/mL) | – |
| CN1C(=O)OC(C)(C)C1=O | 349 mM (≈ 50000 µg/mL) | – |
| CC(=O)OC[C@H]1O[C@@](COC(C)=O)(O[C@H]2O[C@H](COC(C)=O)[C@@H](OC(C)=O)[C@H](OC(C)=O)[C@H]2OC(C)=O)[C@@H](OC(C)=O)[C@@H]1OC(C)=O | 1.34 mM (≈ 910 µg/mL) | – |
| CN(C)CCc1ccc(O)cc1 | 42.4 mM (≈ 7000 µg/mL) | – |
| O=Cc1ccccc1O[C@@H]1O[C@H](CO)[C@@H](O)[C@H](O)[C@H]1O | 63.3 mM (≈ 18000 µg/mL) | – |
| NC(=O)OCC(Cl)(Cl)Cl | 52 mM (≈ 10000 µg/mL) | – |
| O=C[C@H](O)C(O)[C@H](O)CO (stereo in doubt) | 3700 mM (≈ 555000 µg/mL) | – |
| O=C(C1CCCCC1)N1CC(=O)N2CCc3ccccc3C2C1 (stereo unspecified) | 1.28 mM (≈ 400 µg/mL) | – |
| O=C(OC[C@H]1O[C@@H](Oc2ccccc2CO)[C@H](O)[C@@H](O)[C@@H]1O)c1ccccc1 | 1.28 mM (≈ 500 µg/mL) | – |
| O=S(=O)([O-])CS(=O)(=O)[O-].[Ca+2] | 1340 mM | – |
| CC(O)C(Cl)(Cl)Cl (stereo unspecified) | 175 mM (≈ 28600 µg/mL) | – |
| CCCCN(CCN(CCCC)C(=O)N1CCOCC1)C(=O)N1CCOCC1 | 1250 mM (≈ 500000 µg/mL) | – |
| O=C(c1ccccc1O)N1CCOCC1 | 19.8 mM (≈ 4100 µg/mL) | – |
| CCN(CC)C(=O)CC(C)C | 254 mM (≈ 40000 µg/mL) | – |
| COc1c2c(cc3oc(=O)ccc13)OC(C)(C)C=C2 | 0.155 mM (≈ 40 µg/mL) | – |
| O=C1NCCN1/N=C/c1ccc([N+](=O)[O-])o1 | 0.439 mM (≈ 98.5 µg/mL) | – |

Same assay, conditions: 20 °C

| SMILES | solubility |
| --- | --- |
| Cc1ccc(C(C)C)c(O)c1C(=O)O | 0.515 mM (≈ 100 µg/mL) |
| CC(O)(P(=O)(O)O)P(=O)(O)O | 3350 mM (≈ 690000 µg/mL) |
| CC(N)c1ccccc1 (stereo unspecified) | 347 mM (≈ 42000 µg/mL) |
| N=C(NCCCCCCNC(=N)NC(=N)Nc1ccc(Cl)cc1)NC(=N)Nc1ccc(Cl)cc1 | 1.58 mM (≈ 800 µg/mL) |
| Clc1ncnc2[nH]cnc12 | 32.4 mM (≈ 5000 µg/mL) |
| C[C@H](O)[C@@H](O)c1cnc2[nH]c(N)nc(=O)c2n1 | 2.95 mM (≈ 700 µg/mL) |

From the OPERA property sets (Mansouri et al. 2018)
